Test results from PubChem BioAssay (NCI).
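Results reflect a 48-hour exposure of cells in 96-well plates to compound at five concentrations. TGI is the concentration that stops growth completely.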

What was measured:
Assay in all cases: NCI-60 cell line screen, 48 h
UACC-257 melanoma = tested on: UACC-257 melanoma
TK-10 renal = tested on: TK-10 renal
MDA-MB-435 = tested on: MDA-MB-435
HT29 colon = tested on: HT29 colon
MDA-MB-231 breast = tested on: MDA-MB-231 breast
KM12 colon = tested on: KM12 colon
OVCAR-3 ovarian = tested on: OVCAR-3 ovarian
A549 NSCLC = tested on: A549 NSCLC
BT-549 breast = tested on: BT-549 breast
MOLT-4 leukemia = tested on: MOLT-4 leukemia
OVCAR-4 ovarian = tested on: OVCAR-4 ovarian
SK-MEL-5 melanoma = tested on: SK-MEL-5 melanoma
MDA-N = tested on: MDA-N
RPMI-8226 leukemia = tested on: RPMI-8226 leukemia
SNB-75 CNS = tested on: SNB-75 CNS
HCT-116 colon = tested on: HCT-116 colon
HOP-92 NSCLC = tested on: HOP-92 NSCLC
786-0 renal = tested on: 786-0 renal
NCI/ADR-RES ovarian = tested on: NCI/ADR-RES ovarian
SW-620 colon = tested on: SW-620 colon
NCI-H23 lung = tested on: NCI-H23 lung
NCI-H460 lung = tested on: NCI-H460 lung
SNB-19 CNS = tested on: SNB-19 CNS
SF-268 CNS = tested on: SF-268 CNS
U251 CNS = tested on: U251 CNS
PC-3 prostate = tested on: PC-3 prostate
K-562 leukemia = tested on: K-562 leukemia
SK-OV-3 ovarian = tested on: SK-OV-3 ovarian
M14 melanoma = tested on: M14 melanoma
UACC-62 melanoma = tested on: UACC-62 melanoma
SN12C renal = tested on: SN12C renal
T-47D breast = tested on: T-47D breast
RXF 393 renal = tested on: RXF 393 renal
HCT-15 colon = tested on: HCT-15 colon
SF-295 CNS = tested on: SF-295 CNS
HCC-2998 colon = tested on: HCC-2998 colon
OVCAR-8 ovarian = tested on: OVCAR-8 ovarian
HOP-62 NSCLC = tested on: HOP-62 NSCLC
DU-145 prostate = tested on: DU-145 prostate
COLO 205 colon = tested on: COLO 205 colon
ACHN renal = tested on: ACHN renal
MCF7 breast = tested on: MCF7 breast
SF-539 CNS = tested on: SF-539 CNS
SK-MEL-28 melanoma = tested on: SK-MEL-28 melanoma
NCI-H522 lung = tested on: NCI-H522 lung
IGROV1 ovarian = tested on: IGROV1 ovarian
EKVX NSCLC = tested on: EKVX NSCLC
NCI-H226 lung = tested on: NCI-H226 lung
OVCAR-5 ovarian = tested on: OVCAR-5 ovarian
MALME-3M melanoma = tested on: MALME-3M melanoma
HL-60(TB) leukemia = tested on: HL-60(TB) leukemia
HS 578T breast = tested on: HS 578T breast
CCRF-CEM leukemia = tested on: CCRF-CEM leukemia
LOX IMVI melanoma = tested on: LOX IMVI melanoma
A498 renal = tested on: A498 renal
CAKI-1 renal = tested on: CAKI-1 renal
UO-31 renal = tested on: UO-31 renal
SR leukemia = tested on: SR leukemia

Measured: TGI

CC(=O)CC1CCC(=O)CCC(=O)OC(CC(C)=O)CCC(=O)CCC(=O)O1 (centres undefined)
not listed: LOX IMVI melanoma | A498 renal | CAKI-1 renal | UO-31 renal | SR leukemia
> 100 µM: all other assays above

CCOC(=O)c1c(N2CCOCC2)[nH]c(=O)c(C(c2ccc(OC)cc2)c2c(O)c(C(=O)OCC)c(N3CCOCC3)[nH]c2=O)c1O
not listed: IGROV1 ovarian | HL-60(TB) leukemia
> 100 µM: all other assays above
